Data as given in patent publication US8691796B2, “Pharmaceutical composition and method for inhibiting inflammation” (China Medical University, priority 2010, dated 2014).

What was measured:
Type in all cases: cell-based, human
TNF-α = TNF-α concentration in supernatant of treated FLS (sandwich ELISA); details: FLS from patients with rheumatoid arthritis, treated 24 hours, mixture = 100 μg hyaluronic acid + 5 micro-mole lovastatin in 1 ml, control group 347.00
Procedure: (§1) Fibroblast-like synoviocytes (FLS) from seven patients with rheumatoid arthritis (RA) were collected and incubated. First, the joint synovia from the patients were cut into small pieces and suspended in a DMEM medium (Dulbecco modified eagle's medium, comprising 1.5 g/L sodium bicarbonate (S6297, Sigma-Aldrich Co. St Louis, Mo., USA), 1% penicillin-streptomycin-neomycin (P4083, Sigma-Aldrich Co.), and 10% fetal bovine serum (04-001-1A, Biological Industries, Grand Island, N.Y., USA)), and were incubated in the environment under 37° C., 5% CO2 for three days.
(§2) The non-adherent cells were washed out with a phosphate buffer solution (PBS), the medium was refreshed, and the retained adherent cells were cultivated for two weeks. […]
(§3) The concentrations of two RA-related factors, TNF-α (the standard sample was purchased from eBioscience, Ltd., 88-7340) and IL-8 (the standard sample was purchased from R&D systems, Inc., USA, DY208), in the supernatants collected from Experiment B were measured using a sandwich binding protein assay kit or sandwich ELISA kits (purchased from eBioscience, Ltd. and R&D systems, Inc.) according to the manufacturer's manual and standard curves to observe the expression level of the factors, thereby determining the inflammation condition of the cells. Each sample was analyzed twice, and an ELISA reader (Sunrise Remote, TECAN) was used to conduct the measurement. […]

IL-8 = IL-8 concentration in supernatant of treated FLS (sandwich ELISA); details: FLS from patients with rheumatoid arthritis, treated 24 hours, mixture = 100 μg hyaluronic acid + 5 micro-mole lovastatin in 1 ml, control group 736.00
Procedure: The non-adherent cells were washed out with a phosphate buffer solution (PBS), the medium was refreshed, and the retained adherent cells were cultivated for two weeks. The above procedure was repeated three to six times, and the retained cells were FLS, which were used in the following experiments.
The FLS prepared from Experiment A were incubated in a medium containing no serum for 24 hours until the cells grew to a subconfluence state, and the cells were incubated in a DMEM medium containing 10% fetal bovine serum. […]

[1] = system: Fibroblast-like synoviocytes (FLS); assay: Inflammation level of FLS judged from secreted TNF-α and IL-8; details: FLS from patients with RA, treated 24 hours; TNF-α and IL-8 versus control group / HA only
Procedure: as §1, §2, §3

Row | Compound | TNF-α concentration, Average concentration (TNF-α) [pg/mL] | IL-8 concentration, Average concentration (IL-8) [pg/mL] | inflammation level (effect of inhibiting the inflammation) [1]
1 | CC[C@H](C)C(=O)O[C@H]1C[C@@H](C)C=C2C=C[C@H](C)[C@H](CC[C@@H]3C[C@@H](O)CC(=O)O3)[C@H]21 [HMG-CoA reductase inhibitor, Lovastatin] | 355.07 | 703.94 | 
2 | hyaluronic acid [HA] | 296.46 | 353.40 | the inflammation level was lowered
